From paper PMC9628899 (Antiviral Research, 2003)
Read-outs that look alike come from different tables or passages of the source.

How the values were obtained:
cowpox virus (CV) [1] = assay: microbe, parasite or virus in culture; format: cell-based
vaccinia virus (VV) [2] = assay: microbe, parasite or virus in culture; format: cell-based
in vitro = settings: human
Monkeypox = settings: read-out: EC50 Monkeypox; cited from earlier work
[3] = test system: vaccinia, cowpox, monkeypox, and variola viruses; format: cell-based
cowpox virus [4] = test system: cowpox virus; set-up: species or system mice; settings: mouse, in vivo
Variola = settings: read-out: EC50 Variola; cited from earlier work
cowpox virus (CV) [5] = settings: read-out: EC50 Cowpox; cited from earlier work
vaccinia virus (VV) [6] = settings: read-out: EC50 Vaccinia; Table 4; ref Kern et al. (2002); cited from earlier work
cowpox virus [7] = settings: mouse, in vivo, po; cited from earlier work
vaccinia virus = format: in vivo, mice
[8] = ref Barditch-Crovo et al., 1997; cited from earlier work
[9] = Cowpox virus, HFF, read-out: EC50 CV
[10] = Orthopoxvirus vaccinia, HFF, read-out: EC50 VV
[11] = Cowpox virus, HFF, read-out: Cowpox virus EC50
[12] = Orthopoxvirus vaccinia, HFF, read-out: Vaccinia virus EC50

## Nc1ncnc2c1ncn2C[C@@H](CO)OCP(=O)(O)O [HPMPA, (S)-9-(3-hydroxy-2-phosphonylmethoxypropyl)adenine]
HFF cells
  CC50: 269 ± 21 µM
Cowpox virus (CV) [1]; read-out: Cowpox virus EC50
  EC50: 5 ± 4.7 µM
Vaccinia virus (VV) [2]
  fold more active than CDV: about 10 fold
Vaccinia virus (VV) [2]; read-out: Vaccinia virus EC50
  EC50: 3.5 ± 2.8 µM

## CC(=O)OCC(CCn1cnc2cnc(N)nc21)COC(C)=O [Famciclovir]
Cowpox virus (CV) [1]; [9]
  EC50: > 300 µM
Vaccinia virus (VV) [2]; [10]
  EC50: > 300 µM

## C[C@H](Cn1cnc2c(N)ncnc21)OCP(=O)(O)O [PMPA, (R)-9-(2-phosphonylmethoxypropyl)adenine]
In vitro
  CC50: > 300 µM
Cowpox virus (CV) [1]; [11]
  EC50: > 300 µM
Vaccinia virus (VV) [2]; [12]
  EC50: > 300 µM

## O=c1[nH]c(=O)n([C@@H]2O[C@H](CO)[C@@H](O)[C@@H]2O)cc1/C=C/Br [Sorivudine]
Cowpox virus (CV) [1]; [9]
  EC50: > 100 µM
Vaccinia virus (VV) [2]; [10]
  EC50: > 100 µM

## CCCCOC(=O)[C@H](C)NP(=O)(COCCn1cnc2c(N)ncnc21)N[C@@H](C)C(=O)OCCCC [Bis(butylalaninyl)PMEA]
HFF cells
  CC50: 100 ± 27 µM
Cowpox virus (CV) [1]; read-out: Cowpox virus EC50
  EC50: 10 ± 8.2 µM
Vaccinia virus (VV) [2]; read-out: Vaccinia virus EC50
  EC50: 4.4 ± 0.2 µM

## CC(C)OC(=O)OCOP(=O)(CO[C@H](C)Cn1cnc2c(N)ncnc21)OCOC(=O)OC(C)C [Viread]
Cowpox virus (CV) [1]; [9]
  EC50: > 300 µM
Vaccinia virus (VV) [2]; [10]
  EC50: > 300 µM

## Nc1nc(O)c2ncn(COC(CO)CO)c2n1 [Ganciclovir]
Cowpox virus (CV) [1]; [9]
  EC50: > 300 µM
Vaccinia virus (VV) [2]; [10]
  EC50: > 300 µM

## Nc1nc2c(ncn2CCOCP(=O)(O)O)c(=O)[nH]1 [PMEG, 2-phosphonylmethoxyethyl guanine]
HFF cells
  CC50: 88 µM
Cowpox virus (CV) [1]; read-out: Cowpox virus EC50
  EC50: 11.4 ± 1.3 µM
Vaccinia virus (VV) [2]; read-out: Vaccinia virus EC50
  EC50: 4 ± 0.7 µM

## CCCCCCCCCCCCCCCCOCCCOP(=O)(O)CO[C@H](CO)Cn1ccc(N)nc1=O [HDP-CDV, 3-hexadecyloxy-l-propanol CDV]
Monkeypox
  EC50: 0.07 µM
[3]
  active at levels -fold less than the parent molecules: 50- to 200 fold
Cowpox virus [4]; po
  activity in cowpox virus infection of mice: active orally
Variola
  EC50: 0.1 µM
Cowpox virus (CV) [5]
  EC50: 0.6 ± 0.3 µM
Vaccinia virus (VV) [6]
  EC50: 0.8 ± 0.4 µM
Cowpox virus [7]
  activity in cowpox virus-infected mice: active
Vaccinia virus; given orally, Kern, unpublished results
  activity in vaccinia virus infection of mice: active orally

## Nc1ncnc2c1ncn2[C@@H]1O[C@H](CO)[C@@H](O)[C@@H]1O [Vidarabine]
Cowpox virus [4]
  activity in murine model of cowpox virus infection: not active
Vaccinia virus; data not presented
  activity in murine model of vaccinia virus infection: not active

## Nc1ccn(C[C@@H](CO)OCP(=O)(O)O)c(=O)n1 [Cidofovir, (S)-1(3-hydroxy-2-phosphonylmethoxypropyl) cytosine]
Monkeypox
  EC50: 4.6 µM
In vitro
  CC50: 278 ± 9.2 µM
Cowpox virus (CV) [1]; [11]
  EC50: 43 ± 2.5 µM
Cowpox virus (CV) [1]; [9]
  EC50: 43 µM
Vaccinia virus (VV) [2]; [10]
  EC50: 33 µM
Vaccinia virus (VV) [2]; [12]
  EC50: 33 ± 9.1 µM
Variola
  EC50: 27.3 µM
Cowpox virus (CV) [5]
  EC50: 44.7 ± 6.3 µM
Vaccinia virus (VV) [6]
  EC50: 46.2 ± 11.9 µM

## Nc1nc2c(ncn2COCCO)c(=O)[nH]1 [Acyclovir]
Cowpox virus (CV) [1]; [9]
  EC50: > 300 µM
Vaccinia virus (VV) [2]; [10]
  EC50: > 300 µM

## CC(C)(C)C(=O)OCOP(=O)(COCCn1cnc2c(N)ncnc21)OCOC(=O)C(C)(C)C [Adefovir dipivoxil, bis(pivaloyloxymethyl)PMEA]
In vitro
  CC50: 117 ± 27 µM
Cowpox virus (CV) [1]; [11]
  EC50: 13 ± 8.8 µM
Cowpox virus (CV) [1]; [9]
  EC50: 13 µM
Vaccinia virus (VV) [2]; [10]
  EC50: 5.1 µM
Vaccinia virus (VV) [2]; [12]
  EC50: 5.1 ± 0.7 µM
[8]
  oral bioavailability: good oral bioavailability

## CCCCOC(=O)C(C)NP(=O)(COCCn1cnc2c(NC3CC3)nc(N)nc21)NC(C)C(=O)OCCCC (stereo not shown) [Bis(butylalaninyl) PME(N^6-cyclopropyl)DAP]
HFF cells
  CC50: 49 ± 33 µM
Cowpox virus (CV) [1]; read-out: Cowpox virus EC50
  EC50: 0.26 ± 0.2 µM
Vaccinia virus (VV) [2]; read-out: Vaccinia virus EC50
  EC50: 0.08 ± 0.01 µM

## NC(=O)c1ncn([C@@H]2O[C@H](CO)[C@@H](O)[C@H]2O)n1 [Ribavirin]
Cowpox virus (CV) [1]; [9]
  EC50: > 400 µM
Vaccinia virus (VV) [2]; [10]
  EC50: 280 µM

## Nc1ccn([C@@H]2CS[C@H](CO)O2)c(=O)n1 [Lamivudine]
Cowpox virus (CV) [1]; [9]
  EC50: > 400 µM
Vaccinia virus (VV) [2]; [10]
  EC50: > 400 µM

## CC(C)OC(=O)OCOP(=O)(CO[C@H](C)Cn1cnc2c(N)ncnc21)OCOC(=O)OC(C)C [Bis(isopropoxycarbonyloxymethyl)PMPA, bis(isopropoxycarbonyloxymethyl)PMPA]
In vitro
  CC50: > 157 µM
Cowpox virus (CV) [1]; [11]
  EC50: > 157 µM
Vaccinia virus (VV) [2]; [12]
  EC50: > 157 µM

## Nc1nc(N)c2ncn(CCOCP(=O)(O)O)c2n1 [PMEDAP]
In vitro
  CC50: > 339 µM
Cowpox virus (CV) [1]; [11]
  EC50: > 347 µM
Vaccinia virus (VV) [2]; [12]
  EC50: 204 ± 15 µM

## Butyl salicyl cyclic HPMPC
HFF cells
  CC50: > 213 µM
Cowpox virus (CV) [1]; read-out: Cowpox virus EC50
  EC50: 34 ± 4.2 µM
Vaccinia virus (VV) [2]; read-out: Vaccinia virus EC50
  EC50: 32 ± 13 µM

## Nc1nc(=O)n([C@@H]2CS[C@H](CO)O2)cc1F [Coviracil]
Cowpox virus (CV) [1]; [9]
  EC50: > 81 µM
Vaccinia virus (VV) [2]; [10]
  EC50: > 81 µM

## Nc1nc(N)c2ncn([C@H]3CO[C@@H](CO)O3)c2n1 [Amdoxovir]
Cowpox virus (CV) [1]; [9]
  EC50: > 300 µM
Vaccinia virus (VV) [2]; [10]
  EC50: > 300 µM

## O=c1[nH]c(=O)n([C@H]2C[C@H](O)[C@@H](CO)O2)cc1I [Idoxuridine]
Cowpox virus (CV) [1]; [9]
  EC50: 2 µM
Vaccinia virus (VV) [2]; [10]
  EC50: 6 µM

## O=C(O)P(=O)(O)O [Foscarnet]
Cowpox virus (CV) [1]; [9]
  EC50: > 300 µM
Vaccinia virus (VV) [2]; [10]
  EC50: > 300 µM

## O=c1[nH]c(=O)n([C@@H]2O[C@H](CO)[C@@H](O)[C@@H]2F)cc1I [Fialuridine]
Cowpox virus (CV) [1]; [9]
  EC50: 0.24 µM
Vaccinia virus (VV) [2]; [10]
  EC50: 1.5 µM

## Nc1ccn([C@@H]2O[C@H](CO)[C@@H](O)C2(F)F)c(=O)n1 [Gemcitabine]
HFF cells
  toxicity in vitro (in words): very toxic
Cowpox virus (CV) [1]; [9]
  EC50: 0.017 µM
Vaccinia virus (VV) [2]
  selectivity index: > 200
Vaccinia virus (VV) [2]; [10]
  EC50: 0.013 µM

## C[C@H](NP1(=O)CO[C@@H](Cn2ccc(N)nc2=O)CO1)C(=O)OCCc1ccccc1 (stereo partly shown) [Phenethyl alaninyl cyclic HPMPC—mixture, Phenethyl alaninyl cyclic HPMPC]
HFF cells
  CC50: 207 ± 18 µM
Cowpox virus (CV) [1]; read-out: Cowpox virus EC50
  EC50: 6.8 ± 1.8 µM
Vaccinia virus (VV) [2]; read-out: Vaccinia virus EC50
  EC50: 7.1 ± 0.3 µM

## O=c1[nH]c(=O)n([C@H]2C[C@H](O)[C@@H](CO)O2)cc1/C=C/Br [Brivudin]
Cowpox virus (CV) [1]; [9]
  EC50: 66 µM
Vaccinia virus (VV) [2]; [10]
  EC50: > 100 µM

## CCCCCCCCCCCCCCCCOCCCOP1(=O)COC(Cn2ccc(N)nc2=O)CO1 (stereo not drawn) [HDP-cCDV, 3-hexadecyloxy-l-propanol cyclic CDV]
Monkeypox
  EC50: 1.8 µM
[3]
  active at levels -fold less than the parent molecules: 50- to 200 fold
Variola
  EC50: 0.9 µM
Cowpox virus (CV) [5]
  EC50: 2.1 ± 1.9 µM
Vaccinia virus (VV) [6]
  EC50: 3.8 ± 1.5 µM

## CCOC(=O)C(C)NP1(=O)COC(Cn2ccc(N)nc2=O)CO1 (single isomer, unassigned; isomer ii) [Ethyl alaninyl cyclic HPMPC—isomer II, Ethyl alaninyl cyclic HPMPC]
HFF cells
  CC50: > 278 µM
Cowpox virus (CV) [1]; read-out: Cowpox virus EC50
  EC50: 26 ± 3.5 µM
Vaccinia virus (VV) [2]; read-out: Vaccinia virus EC50
  EC50: 15 ± 11 µM

## C=C1[C@H](CO)[C@@H](O)C[C@@H]1n1cnc2c(=O)[nH]c(N)nc21 [Entecavir]
Cowpox virus (CV) [1]; [9]
  EC50: 85 µM
Vaccinia virus (VV) [2]; [10]
  EC50: 53 µM

## Nc1nc(=O)c2ncn([C@@H]3C[C@H](CO)[C@H]3CO)c2[nH]1 [Lobucavir]
Cowpox virus (CV) [1]; [9]
  EC50: 66 µM
Vaccinia virus (VV) [2]; [10]
  EC50: 27 µM

## Nc1nc2c(ncn2CCC(CO)CO)c(=O)[nH]1 [Penciclovir]
Cowpox virus (CV) [1]; [9]
  EC50: > 300 µM
Vaccinia virus (VV) [2]; [10]
  EC50: > 300 µM

## Nc1cccc(CN2C(=O)N(Cc3cccc(N)c3)[C@H](Cc3ccccc3)[C@H](O)[C@@H](O)[C@H]2Cc2ccccc2)c1 [Mozenavir]
Cowpox virus (CV) [1]; [9]
  EC50: > 100 µM
Vaccinia virus (VV) [2]; [10]
  EC50: > 100 µM

## Nc1ccn(C[C@H]2COP(=O)(O)CO2)c(=O)n1 [Cyclic HPMPC (cHPMPC), Cyclic HPMPC]
Monkeypox
  EC50: 63.6 µM
In vitro
  CC50: > 302 µM
Cowpox virus (CV) [1]; [11]
  EC50: 48 ± 8 µM
Vaccinia virus (VV) [2]; [12]
  EC50: 38 ± 11 µM
Variola
  EC50: 45.8 µM
Cowpox virus (CV) [5]
  EC50: 48.3 ± 8 µM
Vaccinia virus (VV) [6]
  EC50: 50.6 ± 13.1 µM

## CCOC(=O)C(C)NP1(=O)COC(Cn2ccc(N)nc2=O)CO1 (single isomer, unassigned; isomer i) [Ethyl alaninyl cyclic HPMPC—isomer I, Ethyl alaninyl cyclic HPMPC]
HFF cells
  CC50: > 276 µM
Cowpox virus (CV) [1]; read-out: Cowpox virus EC50
  EC50: 27 ± 6.5 µM
Vaccinia virus (VV) [2]; read-out: Vaccinia virus EC50
  EC50: 15 ± 13 µM

## Nc1ncnc2c1ncn2CCOCP(=O)(O)O [Adefovir, 9-(2-phosphonylmethoxyethyl)adenine]
In vitro
  CC50: > 366 µM
Cowpox virus (CV) [1]; [11]
  EC50: > 366 µM
Cowpox virus (CV) [1]; [9]
  EC50: > 300 µM
Vaccinia virus (VV) [2]; [10]
  EC50: > 300 µM
Vaccinia virus (VV) [2]; [12]
  EC50: > 366 µM

## CCOCn1c(Cc2ccccc2)c(C(C)C)c(=O)[nH]c1=O [Emivirine]
Cowpox virus (CV) [1]; [9]
  EC50: > 300 µM
Vaccinia virus (VV) [2]; [10]
  EC50: > 300 µM

## CC(C)OC(=O)[C@H](C)N[P@](=O)(CO[C@H](C)Cn1cnc2c(N)ncnc21)Oc1ccccc1 [Isopropyl alaninylphenyl PMPA]
In vitro
  CC50: > 143 µM
Cowpox virus (CV) [1]; [11]
  EC50: 98.9 µM
Vaccinia virus (VV) [2]; [12]
  EC50: 23.5 µM

## Cc1cn([C@H]2O[C@@H](CO)[C@H](O)[C@H]2F)c(=O)[nH]c1=O [Clevudine]
Cowpox virus (CV) [1]; [9]
  EC50: > 300 µM
Vaccinia virus (VV) [2]; [10]
  EC50: > 300 µM

## Nc1nc(NC2CC2)c2ncn(CCOCP(=O)(O)O)c2n1 [PME(N^6-cyclopropyl)DAP]
HFF cells
  CC50: > 263 µM
Cowpox virus (CV) [1]; read-out: Cowpox virus EC50
  EC50: 28 ± 13 µM
Vaccinia virus (VV) [2]; read-out: Vaccinia virus EC50
  EC50: 23 ± 6.9 µM
